Results from ChEMBL document CHEMBL4138123, “Design, synthesis and biological evaluation of novel pyrazolochalcones as potential modulators of PI3K/Akt/mTOR pathway and inducers of apoptosis in breast cancer cells” (Eur J Med Chem, 2017).

Assays:
Type in all cases: functional
NCI-H522 = assay: Cytotoxicity against human NCI-H522 cells assessed as cell growth at 1 uM after 48 hrs by sulforhodamine B assay relative to control; conditions: NCI-H522, 48 h, read-out: Activity
HCT-116 = assay: Cytotoxicity against human HCT116 cells assessed as cell growth at 10 uM after 48 hrs by sulforhodamine B assay relative to control; conditions: HCT-116, 48 h, read-out: Activity
RPMI-8226 = assay: Cytotoxicity against human RPMI8226 cells assessed as cell growth at 1 uM after 48 hrs by sulforhodamine B assay relative to control; conditions: RPMI-8226, 48 h, read-out: Activity
NCI-H460 [1] = assay: Cytotoxicity against human NCI-H460 cells assessed as growth inhibition after 48 hrs by sulforhodamine B assay; conditions: NCI-H460, 48 h
MDA-MB-231 [2] = assay: Cytotoxicity against human MDA-MB-231 cells assessed as cell growth at 100 uM after 48 hrs by sulforhodamine B assay relative to control; conditions: MDA-MB-231, 48 h, read-out: Activity
A549 = assay: Cytotoxicity against human A549/ATCC cells assessed as cell growth at 0.1 uM after 48 hrs by sulforhodamine B assay relative to control; conditions: A549, 48 h, read-out: Activity
OVCAR-5 [3] = assay: Cytotoxicity against human OVCAR5 cells assessed as cell growth at 0.01 uM after 48 hrs by sulforhodamine B assay relative to control; conditions: OVCAR-5, 48 h, read-out: Activity
MOLT-4 = assay: Cytotoxicity against human MOLT4 cells assessed as cell growth at 1 uM after 48 hrs by sulforhodamine B assay relative to control; conditions: MOLT-4, 48 h, read-out: Activity
ACHN = assay: Cytotoxicity against human ACHN cells assessed as growth inhibition after 48 hrs by sulforhodamine B assay
SN12C = assay: Cytotoxicity against human SN12C cells assessed as growth inhibition after 48 hrs by sulforhodamine B assay
HOP-62 = assay: Cytotoxicity against human HOP62 cells assessed as cell growth at 10 uM after 48 hrs by sulforhodamine B assay relative to control; conditions: HOP-62, 48 h, read-out: Activity
NCI-H322M [4] = assay: Cytotoxicity against human NCI-H322M cells assessed as cell growth at 0.1 uM after 48 hrs by sulforhodamine B assay relative to control; conditions: read-out: Activity
SK-MEL-28 = assay: Cytotoxicity against human SK-MEL-28 cells assessed as cell growth at 0.01 uM after 48 hrs by sulforhodamine B assay relative to control; conditions: SK-MEL-28, 48 h, read-out: Activity
NCI/ADR-RES = assay: Cytotoxicity against human NCI/ADR-RES cells assessed as cell growth at 100 uM after 48 hrs by sulforhodamine B assay relative to control; conditions: read-out: Activity
SR [5] = assay: Cytotoxicity against human SR cells assessed as cell growth at 10 uM after 48 hrs by sulforhodamine B assay relative to control; conditions: read-out: Activity
K562 [6] = assay: Cytotoxicity against human K562 cells assessed as cell growth at 0.1 uM after 48 hrs by sulforhodamine B assay relative to control; conditions: K562, 48 h, read-out: Activity
RXF 393 = assay: Cytotoxicity against human RXF393 cells assessed as cell growth at 0.01 uM after 48 hrs by sulforhodamine B assay relative to control; conditions: RXF 393, 48 h, read-out: Activity
KM12 = assay: Cytotoxicity against human KM12 cells assessed as cell growth at 10 uM after 48 hrs by sulforhodamine B assay relative to control; conditions: KM12, 48 h, read-out: Activity
SK-OV-3 = assay: Cytotoxicity against human SKOV3 cells assessed as cell growth at 0.1 uM after 48 hrs by sulforhodamine B assay relative to control; conditions: SK-OV-3, 48 h, read-out: Activity
SW-620 = assay: Cytotoxicity against human SW620 cells assessed as cell growth at 100 uM after 48 hrs by sulforhodamine B assay relative to control; conditions: SW-620, 48 h, read-out: Activity
SNB-19 = assay: Cytotoxicity against human SNB19 cells assessed as cell growth at 10 uM after 48 hrs by sulforhodamine B assay relative to control; conditions: SNB-19, 48 h, read-out: Activity
OVCAR-5 [7] = assay: Cytotoxicity against human OVCAR5 cells assessed as cell growth at 10 uM after 48 hrs by sulforhodamine B assay relative to control; conditions: OVCAR-5, 48 h, read-out: Activity
T47D = assay: Cytotoxicity against human T47D cells assessed as cell growth at 1 uM after 48 hrs by sulforhodamine B assay relative to control; conditions: read-out: Activity
M14 = assay: Cytotoxicity against human M14 cells assessed as cell growth at 1 uM after 48 hrs by sulforhodamine B assay relative to control; conditions: M14, 48 h, read-out: Activity
NCI-H23 = assay: Cytotoxicity against human NCI-H23 cells assessed as cell growth at 10 uM after 48 hrs by sulforhodamine B assay relative to control; conditions: NCI-H23, 48 h, read-out: Activity
SF-268 = assay: Cytotoxicity against human SF268 cells assessed as growth inhibition after 48 hrs by sulforhodamine B assay; conditions: SF-268, 48 h; for CC50: read-out: LC50 (the source's name)
HCT-15 = assay: Cytotoxicity against human HCT15 cells assessed as cell growth at 1 uM after 48 hrs by sulforhodamine B assay relative to control; conditions: HCT-15, 48 h, read-out: Activity
NCI-H460 [8] = assay: Cytotoxicity against human NCI-H460 cells assessed as cell growth at 0.01 uM after 48 hrs by sulforhodamine B assay relative to control; conditions: NCI-H460, 48 h, read-out: Activity
SR [9] = assay: Cytotoxicity against human SR cells assessed as cell growth at 100 uM after 48 hrs by sulforhodamine B assay relative to control; conditions: read-out: Activity
MDA-MB-231 [10] = assay: Cytotoxicity against human MDA-MB-231 cells assessed as cell growth at 0.01 uM after 48 hrs by sulforhodamine B assay relative to control; conditions: MDA-MB-231, 48 h, read-out: Activity
K562 [11] = assay: Cytotoxicity against human K562 cells assessed as cell growth at 0.01 uM after 48 hrs by sulforhodamine B assay relative to control; conditions: K562, 48 h, read-out: Activity
NCI-H322M [12] = assay: Cytotoxicity against human NCI-H322M cells assessed as cell growth at 100 uM after 48 hrs by sulforhodamine B assay relative to control; conditions: read-out: Activity
SK-MEL-2 = assay: Cytotoxicity against human SK-MEL-2 cells assessed as growth inhibition after 48 hrs by sulforhodamine B assay; conditions: SK-MEL-2, 48 h
MCF7 = assay: Cytotoxicity against human MCF7 cells assessed as cell growth at 0.01 uM after 48 hrs by sulforhodamine B assay relative to control; conditions: MCF7, 48 h, read-out: Activity
Hs-578T = assay: Cytotoxicity against human Hs 578T cells assessed as cell growth at 0.01 uM after 48 hrs by sulforhodamine B assay relative to control; conditions: read-out: Activity

## COc1cc(-c2cc(/C=C/C(=O)c3ccc4c(c3)OCO4)[nH]n2)cc(OC)c1OC
NCI-H522
  growth at 1 µM: 52%
HCT-116
  growth at 10 µM: -60%
RPMI-8226
  growth at 1 µM: 36%
NCI-H460 [1]
  LC50: > 100 µM
  TGI: 5.1 µM
MDA-MB-231 [2]
  growth at 100 µM: 21%
A549
  growth at 0.1 µM: 98%
OVCAR-5 [3]
  growth at 0.01 µM: 97%
MOLT-4
  growth at 1 µM: 99%
ACHN
  LC50: 7.32 µM
  TGI: 3.71 µM
SN12C
  LC50: > 100 µM
  TGI: > 100 µM
HOP-62
  growth at 10 µM: -38%
NCI-H322M [4]
  growth at 0.1 µM: 95%
SK-MEL-28
  growth at 0.01 µM: 100%
NCI/ADR-RES
  growth at 100 µM: 1%
SR [5]
  growth at 10 µM: 6%
K562 [6]
  growth at 0.1 µM: 102%
RXF 393
  growth at 0.01 µM: 95%
KM12
  growth at 10 µM: -69%
SK-OV-3
  growth at 0.1 µM: 103%
SW-620
  growth at 100 µM: 1%
SNB-19
  growth at 10 µM: 30%
OVCAR-5 [7]
  growth at 10 µM: 16%
T47D
  growth at 1 µM: 79%
M14
  growth at 1 µM: 100%
NCI-H23
  growth at 10 µM: 63%
SF-268
  TGI: 14.5 µM
  CC50: > 100 µM
HCT-15
  growth at 1 µM: 81%
NCI-H460 [8]
  growth at 0.01 µM: 104%
SR [9]
  growth at 100 µM: 2%
MDA-MB-231 [10]
  growth at 0.01 µM: 101%
K562 [11]
  growth at 0.01 µM: 100%
NCI-H322M [12]
  growth at 100 µM: -9%
SK-MEL-2
  LC50 (concentration killing 50% of cells): 81.3 µM
  TGI: 28.9 µM
MCF7
  growth at 0.01 µM: 89%
Hs-578T
  growth at 0.01 µM: 93%

## COc1ccc(-c2cc(/C=C/C(=O)c3ccc(N)cc3)[nH]n2)cc1OC
NCI-H522
  growth at 1 µM: 87%
HCT-116
  growth at 10 µM: -73%
RPMI-8226
  growth at 1 µM: 59%
NCI-H460 [1]
  GI50: 2.03 µM
  LC50: 10.6 µM
  TGI: 4.53 µM
MDA-MB-231 [2]
  growth at 100 µM: -77%
A549
  growth at 0.1 µM: 93%
OVCAR-5 [3]
  growth at 0.01 µM: 91%
MOLT-4
  growth at 1 µM: 93%
ACHN
  GI50: 1.67 µM
  LC50: 6.48 µM
  TGI: 3.29 µM
SN12C
  GI50: 3.53 µM
  LC50: 41.3 µM
  TGI: 13.7 µM
HOP-62
  growth at 10 µM: -1%
NCI-H322M [4]
  growth at 0.1 µM: 102%
SK-MEL-28
  growth at 0.01 µM: 92%
NCI/ADR-RES
  growth at 100 µM: 2%
SR [5]
  growth at 10 µM: -13%
K562 [6]
  growth at 0.1 µM: 98%
RXF 393
  growth at 0.01 µM: 99%
KM12
  growth at 10 µM: -79%
SK-OV-3
  growth at 0.1 µM: 102%
SW-620
  growth at 100 µM: -53%
SNB-19
  growth at 10 µM: 31%
OVCAR-5 [7]
  growth at 10 µM: -10%
T47D
  growth at 1 µM: 87%
M14
  growth at 1 µM: 101%
NCI-H23
  growth at 10 µM: 21%
SF-268
  GI50: 1.89 µM
  TGI: 4.4 µM
  CC50: 11.2 µM
HCT-15
  growth at 1 µM: 73%
NCI-H460 [8]
  growth at 0.01 µM: 101%
SR [9]
  growth at 100 µM: -5%
MDA-MB-231 [10]
  growth at 0.01 µM: 113%
K562 [11]
  growth at 0.01 µM: 99%
NCI-H322M [12]
  growth at 100 µM: -88%
SK-MEL-2
  GI50: 8.44 µM
  LC50 (concentration killing 50% of cells): 53.2 µM
  TGI: 22.2 µM
MCF7
  growth at 0.01 µM: 89%
Hs-578T
  growth at 0.01 µM: 98%

## COc1cc(-c2cc(/C=C/C(=O)c3ccc(F)c(F)c3)[nH]n2)cc(OC)c1OC
NCI-H522
  growth at 1 µM: 71%
HCT-116
  growth at 10 µM: 9%
RPMI-8226
  growth at 1 µM: 73%
NCI-H460 [1]
  LC50: 80.4 µM
  TGI: 8.24 µM
MDA-MB-231 [2]
  growth at 100 µM: -49%
A549
  growth at 0.1 µM: 98%
OVCAR-5 [3]
  growth at 0.01 µM: 99%
MOLT-4
  growth at 1 µM: 91%
ACHN
  LC50: > 100 µM
  TGI: > 100 µM
SN12C
  LC50: > 100 µM
  TGI: 25.5 µM
HOP-62
  growth at 10 µM: 25%
NCI-H322M [4]
  growth at 0.1 µM: 94%
SK-MEL-28
  growth at 0.01 µM: 102%
NCI/ADR-RES
  growth at 100 µM: -5%
SR [5]
  growth at 10 µM: 11%
K562 [6]
  growth at 0.1 µM: 109%
RXF 393
  growth at 0.01 µM: 94%
KM12
  growth at 10 µM: 3%
SK-OV-3
  growth at 0.1 µM: 99%
SW-620
  growth at 100 µM: 1%
SNB-19
  growth at 10 µM: 25%
OVCAR-5 [7]
  growth at 10 µM: 27%
T47D
  growth at 1 µM: 76%
M14
  growth at 1 µM: 86%
NCI-H23
  growth at 10 µM: -7%
SF-268
  TGI: > 100 µM
  CC50: > 100 µM
HCT-15
  growth at 1 µM: 88%
NCI-H460 [8]
  growth at 0.01 µM: 106%
SR [9]
  growth at 100 µM: 8%
MDA-MB-231 [10]
  growth at 0.01 µM: 94%
K562 [11]
  growth at 0.01 µM: 100%
NCI-H322M [12]
  growth at 100 µM: 3%
SK-MEL-2
  LC50 (concentration killing 50% of cells): 41.1 µM
  TGI: 5.89 µM
MCF7
  growth at 0.01 µM: 91%
Hs-578T
  growth at 0.01 µM: 98%
